Reference: ChEMBL document CHEMBL3885881, “DrugMatrix”

Species on record: Rattus norvegicus
Assay: DrugMatrix - Regimen: Daily Repeat
Type: toxicity, organism-based, Sprague-Dawley
Design: regimen Daily Repeat, gender Male, age 6-8 weeks
Settings: in vivo, iv, 0 mg/kg, dose level Control, vehicle 100 % SALINE; for ABSOLUTE BASOPHIL / ABSOLUTE EOSINOPHIL / ABSOLUTE LYMPHOCYTE / ABSOLUTE MONOCYTE / ABSOLUTE SEGMENTED NEUTROPHIL / BASOPHIL / EOSINOPHIL / ERYTHROCYTE COUNT / HEMATOCRIT / HEMOGLOBIN / LEUKOCYTE COUNT / LYMPHOCYTE / MEAN CORPUSCULAR HEMOGLOBIN / MEAN CORPUSCULAR HEMOGLOBIN CONCENTRATION / MEAN CORPUSCULAR VOLUME / MONOCYTE / NEUTROPHIL / NUCLEATED RED BLOOD CELLS / PLATELET COUNT: tissue Blood; for ALANINE AMINOTRANSFERASE / ALBUMIN / ALKALINE PHOSPHATASE / ASPARTATE AMINOTRANSFERASE / BLOOD UREA NITROGEN / CARBON DIOXIDE / CHLORIDE / CHOLESTEROL / CREATINE PHOSPHOKINASE / CREATININE / GLUCOSE / LACTATE DEHYDROGENASE / LIPASE / PHOSPHORUS / POTASSIUM / SODIUM / TOTAL BILIRUBIN / TOTAL PROTEIN / URIC ACID: tissue Plasma

C[N+](C)(C)CCOC(=O)CCC(=O)OCC[N+](C)(C)C.[Cl-].[Cl-] [SUCCINYLCHOLINE CHLORIDE] was tested, and the “ABSOLUTE BASOPHIL” value (72 h, time 3 day) was 0 CELLS/uL, the “ABSOLUTE EOSINOPHIL” value (72 h, time 3 day) was 193.5 CELLS/uL and the “ABSOLUTE LYMPHOCYTE” value (72 h, time 3 day) was 15717.5 CELLS/uL. For the same compound, the “ABSOLUTE MONOCYTE” value (72 h, time 3 day) was 389.33 CELLS/uL, the “ABSOLUTE SEGMENTED NEUTROPHIL” value (72 h, time 3 day) was 1883 CELLS/uL and the BASOPHIL (72 h, time 3 day) was 0%. The EOSINOPHIL (72 h, time 3 day) was 1.17%, the “ERYTHROCYTE COUNT” value (72 h, time 3 day) was 5.68 x10E6/uL and the HEMATOCRIT (72 h, time 3 day) was 35.83%. For the same compound, the HEMOGLOBIN (72 h, time 3 day) was 13.48 G/DL, the “LEUKOCYTE COUNT” value (72 h, time 3 day) was 18.18 x10E3/uL and the LYMPHOCYTE (72 h, time 3 day) was 86.67%. The “MEAN CORPUSCULAR HEMOGLOBIN” value (72 h, time 3 day) was 23.8 pg, the “MEAN CORPUSCULAR HEMOGLOBIN CONCENTRATION” value (72 h, time 3 day) was 37.68 G/DL and the “MEAN CORPUSCULAR VOLUME” value (72 h, time 3 day) was 63.27 fL. For the same compound, the MONOCYTE (72 h, time 3 day) was 2.17%, the NEUTROPHIL (72 h, time 3 day) was 10% and the “NUCLEATED RED BLOOD CELLS” value (72 h, time 3 day) was 0 /100WBC. For the same compound, the “PLATELET COUNT” value (72 h, time 3 day) was 1186.33 x10E3/uL, the “ALANINE AMINOTRANSFERASE” value (72 h, time 3 day) was 68.5 u/L and the ALBUMIN (72 h, time 3 day) was 4.37 G/DL. For the same compound, the “ALKALINE PHOSPHATASE” value (72 h, time 3 day) was 396.33 u/L, the “ASPARTATE AMINOTRANSFERASE” value (72 h, time 3 day) was 92.5 u/L and the “BLOOD UREA NITROGEN” value (72 h, time 3 day) was 18 mg/dL. For the same compound, the “CARBON DIOXIDE” value (72 h, time 3 day) was 24.33 mmol/L, the CHLORIDE (72 h, time 3 day) was 102.4 MEQ/L and the CHOLESTEROL (72 h, time 3 day) was 67.17 mg/dL. The “CREATINE PHOSPHOKINASE” value (72 h, time 3 day) was 378.67 u/L, the CREATININE (72 h, time 3 day) was 0.19 mg/dL and the GLUCOSE (72 h, time 3 day) was 178.33 mg/dL. The “LACTATE DEHYDROGENASE” value (72 h, time 3 day) was 245.17 u/L, the LIPASE (72 h, time 3 day) was 9.2 u/L and the PHOSPHORUS (72 h, time 3 day) was 12.37 mg/dL. For the same compound, the POTASSIUM (72 h, time 3 day) was 6.48 MEQ/L, the SODIUM (72 h, time 3 day) was 143.28 MEQ/L and the “TOTAL BILIRUBIN” value (72 h, time 3 day) was 0.23 mg/dL. The “TOTAL PROTEIN” value (72 h, time 3 day) was 5.65 G/DL, the “URIC ACID” value (72 h, time 3 day) was 1.6 mg/dL and the “ABSOLUTE BASOPHIL” value (120 h, time 5 day) was 0 CELLS/uL. For the same compound, the “ABSOLUTE EOSINOPHIL” value (120 h, time 5 day) was 27.5 CELLS/uL, the “ABSOLUTE LYMPHOCYTE” value (120 h, time 5 day) was 13593.17 CELLS/uL and the “ABSOLUTE MONOCYTE” value (120 h, time 5 day) was 576 CELLS/uL. For the same compound, the “ABSOLUTE SEGMENTED NEUTROPHIL” value (120 h, time 5 day) was 1836.67 CELLS/uL, the BASOPHIL (120 h, time 5 day) was 0% and the EOSINOPHIL (120 h, time 5 day) was 0.17%. For the same compound, the “ERYTHROCYTE COUNT” value (120 h, time 5 day) was 5.99 x10E6/uL, the HEMATOCRIT (120 h, time 5 day) was 37.42% and the HEMOGLOBIN (120 h, time 5 day) was 13.78 G/DL. The “LEUKOCYTE COUNT” value (120 h, time 5 day) was 16.03 x10E3/uL, the LYMPHOCYTE (120 h, time 5 day) was 85.17% and the “MEAN CORPUSCULAR HEMOGLOBIN” value (120 h, time 5 day) was 23.08 pg. The “MEAN CORPUSCULAR HEMOGLOBIN CONCENTRATION” value (120 h, time 5 day) was 36.83 G/DL, the “MEAN CORPUSCULAR VOLUME” value (120 h, time 5 day) was 62.6 fL and the MONOCYTE (120 h, time 5 day) was 3.5%. The NEUTROPHIL (120 h, time 5 day) was 11.17%, the “NUCLEATED RED BLOOD CELLS” value (120 h, time 5 day) was 0 /100WBC and the “PLATELET COUNT” value (120 h, time 5 day) was 1352.5 x10E3/uL. The “ALANINE AMINOTRANSFERASE” value (120 h, time 5 day) was 49.83 u/L, the ALBUMIN (120 h, time 5 day) was 4.25 G/DL and the “ALKALINE PHOSPHATASE” value (120 h, time 5 day) was 331.33 u/L. For the same compound, the “ASPARTATE AMINOTRANSFERASE” value (120 h, time 5 day) was 86.17 u/L, the “BLOOD UREA NITROGEN” value (120 h, time 5 day) was 19.5 mg/dL and the “CARBON DIOXIDE” value (120 h, time 5 day) was 26.67 mmol/L. The CHLORIDE (120 h, time 5 day) was 103 MEQ/L, the CHOLESTEROL (120 h, time 5 day) was 67.5 mg/dL and the “CREATINE PHOSPHOKINASE” value (120 h, time 5 day) was 346.17 u/L. For the same compound, the CREATININE (120 h, time 5 day) was 0.22 mg/dL, the GLUCOSE (120 h, time 5 day) was 170.67 mg/dL and the “LACTATE DEHYDROGENASE” value (120 h, time 5 day) was 405.5 u/L. The LIPASE (120 h, time 5 day) was 8.83 u/L, the PHOSPHORUS (120 h, time 5 day) was 11.3 mg/dL and the POTASSIUM (120 h, time 5 day) was 6.06 MEQ/L. The SODIUM (120 h, time 5 day) was 143.4 MEQ/L, the “TOTAL BILIRUBIN” value (120 h, time 5 day) was 0.17 mg/dL and the “TOTAL PROTEIN” value (120 h, time 5 day) was 6.22 G/DL. The “URIC ACID” value (120 h, time 5 day) was 1.63 mg/dL.
